Test results taken from ChEMBL document CHEMBL5380860, “Design, Synthesis, and Antitumor Activity of Potent and Selective EGFR L858R/T790M Inhibitors and Identification of a Combination Therapy to Overcome Acquired Resistance in Models of Non-small-cell Lung Cancer” (J Med Chem, 2023).
Activity calls are given as the source filed them. The calls are words filed in the database; no cut-off is given here.

Assays:
[1] = tested on: Mus musculus; assay: In vivo inhibition of EGFR L858R/T790M mutant in ip dosed NCI-H1975 cells xenografted BALB/c mouse assessed as inhibition of ERK-1/2 phosphorylation in tumor by immunoblot analysis; assay type: functional, organism-based; settings: dose 5-20 mg/kg/day
[2] = tested on: Epidermal growth factor receptor (Homo sapiens), P00533 [L858R]; assay: Inhibition of human partial length EGFR (R669 to V1011 residues) L858R mutant expressed in bacterial expression system assessed as residual activity at 1 uM by KINOMEscan analysis
[3] = tested on: Epidermal growth factor receptor (Homo sapiens), P00533 [L858R,T790M]; assay: Covalent binding affinity to EGFR L858R/T790M mutant (unknown origin) assessed as enzyme-compound complex formation at protein to compound concentration ratio of 1:4 incubated for 1 hr by LC-MS analysis
[4] = tested on: NCI-H1975; assay: Inhibition of clonogenicity in human NCI-H1975 cells assessed as inhibition of colony formation incubated for 14 days by crystal violet staining based analysis; assay type: functional, cell-based; settings: dose 0.1-10 µM, time 14.0 day
[5] = AUC (0 to t) in Sprague-Dawley rat at 1 mg/kg, iv by LC-MS analysis; assay type: ADME, organism-based; set-up: dose 1 mg/kg, route iv; settings: in vivo
[6] = (§1) Toxicity in BALB/c mouse xenografted with N-(3-((6-Fluoro-2-((4-(4-methylpiperazin-1-yl)phenyl)amino)quinazolin-4-yl)amino)phenyl)acrylamide-resistant human NCI-H1975 cells assessed as changes in lung morphological changes at 20 mg/kg/day, ip in presence of ACK1 inhibitor, dasatinib by hematoxylin-eosin staining based analysis; assay type: organism-based; settings: in vivo
[7] = target: Proto-oncogene tyrosine-protein kinase Src (Homo sapiens, UniProt P12931); assay: Inhibition of human wild type partial length Src kinase (L240 to L536 residues) expressed in bacterial expression system assessed as residual activity at 1 uM by KINOMEscan analysis
[8] = target: T1, Tyrosine-protein kinase Tec (Homo sapiens, UniProt P42680); assay: Inhibition of human wild type partial length TEC kinase (L341 to D620 residues) expressed in bacterial expression system by KINOMEscan analysis
T1 sequence (P42680 whole entry): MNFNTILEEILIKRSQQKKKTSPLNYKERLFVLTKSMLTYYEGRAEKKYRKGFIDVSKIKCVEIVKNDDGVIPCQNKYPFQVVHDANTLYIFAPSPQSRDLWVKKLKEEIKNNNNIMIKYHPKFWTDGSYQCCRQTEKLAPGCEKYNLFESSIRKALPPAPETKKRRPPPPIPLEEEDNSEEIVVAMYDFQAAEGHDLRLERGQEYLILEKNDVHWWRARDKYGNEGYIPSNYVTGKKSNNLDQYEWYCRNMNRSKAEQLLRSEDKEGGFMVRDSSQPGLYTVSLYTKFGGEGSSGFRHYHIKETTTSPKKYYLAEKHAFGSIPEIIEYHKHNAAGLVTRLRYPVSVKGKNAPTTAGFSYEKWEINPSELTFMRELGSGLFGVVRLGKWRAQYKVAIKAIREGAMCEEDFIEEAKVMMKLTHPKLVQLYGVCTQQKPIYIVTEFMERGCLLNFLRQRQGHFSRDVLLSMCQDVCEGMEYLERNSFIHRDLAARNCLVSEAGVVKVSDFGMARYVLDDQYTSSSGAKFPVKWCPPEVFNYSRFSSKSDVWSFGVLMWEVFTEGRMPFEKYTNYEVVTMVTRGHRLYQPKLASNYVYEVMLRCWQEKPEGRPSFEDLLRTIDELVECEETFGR

[9] = Selectivity ratio of IC50 for cytotoxicity against human A549 cells harboring wild type EGFR to IC50 for antiproliferative activity against human NCI-H1975 cells harboring EGFR L858R/T790M mutant; assay type: toxicity, cell-based; settings: read-out: Ratio IC50
[10] = tested on: Epidermal growth factor receptor (Homo sapiens), P00533 [L858R,T790M]; assay: Inhibition of EGFR L858R/T790M mutant in N-(3-((6-Fluoro-2-((4-(4-methylpiperazin-1-yl)phenyl)amino)quinazolin-4-yl)amino)phenyl)acrylamide-resistant human NCI-H1975 cells assessed as inhibition of EGF-induced AKT phosphorylation at Ser473 residue pretreated with compound and ACK1 inhibitor, Bosutinib for 4 hrs followed by incubation with EGF for 10 mins by western blot analysis; assay type: cell-based; settings: time 250.0 min
[11] = target: STE20-like serine/threonine-protein kinase (Homo sapiens, UniProt Q9H2G2); assay: Inhibition of human wild type partial length SLK (S14 to A307 residues) expressed in bacterial expression system assessed as residual activity at 1 uM by KINOMEscan analysis
[12] = Cytotoxicity against human A-431 cells harboring wild type EGFR assessed as reduction in cell viability measured after 72 hrs by MTT assay; assay type: toxicity, cell-based
[13] = tested on: NCI-H1975; assay: Induction of apoptosis in human NCI-H1975 cells assessed as induction of caspase-3 cleavage pretreated with compound for 4 hrs followed by incubation with EGF for 10 mins by western blot analysis; assay type: functional, cell-based; settings: dose 0.1-10 µM, time 250.0 min
[14] = tested on: HCC827; assay: Induction of apoptosis in human HCC827 cells assessed as induction of PARP cleavage pretreated with compound for 4 hrs followed by incubation with EGF for 10 mins by western blot analysis; assay type: functional, cell-based; settings: dose 0.1-10 µM, time 250.0 min
[15] = tested on: Epidermal growth factor receptor (Homo sapiens), P00533 [UNDEFINED MUTATION]; assay: Inhibition of human EGFR exon del19 mutant assessed as residual activity at 1 uM by KINOMEscan analysis
[16] = target: Epidermal growth factor receptor (Homo sapiens, UniProt P00533, L858R); assay: Inhibition of human partial length EGFR (R669 to V1011 residues) L858R mutant expressed in bacterial expression system by KINOMEscan analysis
[17] = tested on: Epidermal growth factor receptor (Homo sapiens), P00533 [T790M]; assay: Inhibition of human partial length EGFR (R669 to G1022 residues) T790M mutant expressed in mammalian expression system assessed as residual activity at 1 uM by KINOMEscan analysis
[18] = as §1, with “kidney” for “lung”; assay type: organism-based; settings: in vivo
[19] = target: T2, Epidermal growth factor receptor (Homo sapiens, UniProt P00533); assay: Inhibition of human wild type partial length EGFR (R669 to V1011 residues) expressed in bacterial expression system by KINOMEscan analysis; assay type: toxicity
[20] = tested on: Epidermal growth factor receptor (Homo sapiens), P00533 [L858R,T790M]; assay: Covalent binding affinity to EGFR L858R/T790M mutant (unknown origin) assessed as covalent adduct formation at Cys797 residue at protein to compound concentration ratio of 1:4 incubated for 1 hr and measured following enzymatic hydrolysis by LC-MS analysis
[21] = tested on: NCI-H1975; assay: Antitumor activity against human NCI-H1975 cells xenografted in ip dosed BALB/c mouse assessed as decrease in tumor volume; assay type: functional, organism-based; settings: dose 5-20 mg/kg/day
[22] = AUC (0 to infinity) in Sprague-Dawley rat at 1 mg/kg, iv by LC-MS analysis; assay type: ADME, organism-based; set-up: dose 1 mg/kg, route iv; settings: in vivo
[23] = target: T2, Epidermal growth factor receptor; assay: Inhibition of wild type EGFR in human A549 cells assessed as inhibition of EGF-induced EGFR phosphorylation at Tyr1068 residue at 10 uM pretreated with compound for 4 hrs followed by incubation with EGF for 10 mins by western blot analysis; assay type: toxicity, cell-based; settings: a549, 4.167 h, time 250 min
[24] = tested on: NCI-H1975; assay: Induction of apoptosis in human NCI-H1975 cells assessed as induction of PARP cleavage pretreated with compound for 4 hrs followed by incubation with EGF for 10 mins by western blot analysis; assay type: functional, cell-based; settings: dose 0.1-10 µM, time 250.0 min
[25] = species on record: Mus musculus; settings: BALB/c, dose 10.0 mg/kg/day, route po

Sequence of STE20-like serine/threonine-protein kinase (Q9H2G2 whole entry, looked up, the tested form may be a part): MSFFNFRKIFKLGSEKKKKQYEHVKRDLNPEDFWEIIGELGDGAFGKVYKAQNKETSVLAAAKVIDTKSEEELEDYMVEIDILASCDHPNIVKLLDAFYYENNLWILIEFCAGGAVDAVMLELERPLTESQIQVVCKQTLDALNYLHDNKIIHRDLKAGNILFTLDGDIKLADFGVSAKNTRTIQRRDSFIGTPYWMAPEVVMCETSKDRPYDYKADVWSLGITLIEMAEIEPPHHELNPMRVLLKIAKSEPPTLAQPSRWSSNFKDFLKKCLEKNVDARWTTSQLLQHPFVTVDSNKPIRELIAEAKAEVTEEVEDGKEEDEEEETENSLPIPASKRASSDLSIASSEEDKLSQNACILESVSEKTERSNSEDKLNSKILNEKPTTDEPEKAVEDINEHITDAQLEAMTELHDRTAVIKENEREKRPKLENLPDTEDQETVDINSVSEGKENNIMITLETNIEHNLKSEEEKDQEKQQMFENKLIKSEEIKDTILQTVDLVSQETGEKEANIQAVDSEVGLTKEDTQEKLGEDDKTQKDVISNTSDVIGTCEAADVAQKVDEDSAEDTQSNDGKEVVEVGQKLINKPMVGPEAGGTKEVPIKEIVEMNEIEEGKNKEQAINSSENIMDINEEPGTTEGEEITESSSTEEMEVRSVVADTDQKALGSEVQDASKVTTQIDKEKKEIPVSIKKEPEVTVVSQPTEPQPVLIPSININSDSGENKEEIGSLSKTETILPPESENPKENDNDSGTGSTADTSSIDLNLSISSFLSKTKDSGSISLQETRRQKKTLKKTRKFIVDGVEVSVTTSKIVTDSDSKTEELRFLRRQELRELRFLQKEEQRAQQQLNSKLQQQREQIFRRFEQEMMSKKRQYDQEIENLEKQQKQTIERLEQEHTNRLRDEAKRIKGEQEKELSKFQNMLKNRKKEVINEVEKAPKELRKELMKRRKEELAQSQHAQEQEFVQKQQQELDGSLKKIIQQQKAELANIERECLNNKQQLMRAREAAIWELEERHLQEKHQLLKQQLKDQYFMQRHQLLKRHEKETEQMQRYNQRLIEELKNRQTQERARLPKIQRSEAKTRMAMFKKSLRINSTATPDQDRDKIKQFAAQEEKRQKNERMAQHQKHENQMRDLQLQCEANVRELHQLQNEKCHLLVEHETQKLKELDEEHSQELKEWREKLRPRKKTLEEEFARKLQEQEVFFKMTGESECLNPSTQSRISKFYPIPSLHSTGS
Sequence of Proto-oncogene tyrosine-protein kinase Src (P12931 2-536 limits assumed): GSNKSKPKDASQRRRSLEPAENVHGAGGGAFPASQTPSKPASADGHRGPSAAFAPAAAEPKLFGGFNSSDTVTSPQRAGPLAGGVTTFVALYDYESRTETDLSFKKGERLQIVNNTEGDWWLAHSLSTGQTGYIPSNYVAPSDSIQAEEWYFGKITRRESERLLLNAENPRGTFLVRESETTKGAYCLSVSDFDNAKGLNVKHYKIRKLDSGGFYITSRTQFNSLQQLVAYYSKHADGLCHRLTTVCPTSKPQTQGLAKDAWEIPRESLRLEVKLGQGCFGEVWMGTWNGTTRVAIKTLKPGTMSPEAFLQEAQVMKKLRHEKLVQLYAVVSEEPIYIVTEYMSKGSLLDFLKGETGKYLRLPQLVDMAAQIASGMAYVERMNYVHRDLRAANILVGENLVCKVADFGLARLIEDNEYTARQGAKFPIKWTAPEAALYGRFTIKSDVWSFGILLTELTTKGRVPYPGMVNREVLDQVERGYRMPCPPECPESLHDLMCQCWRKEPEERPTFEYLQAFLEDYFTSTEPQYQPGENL

C=CC(=O)Nc1cccc(Nc2nc(Nc3ccc(N4CCN(C)CC4)cc3)nc3ccc(F)cc23)c1
inhibition [1]: Dose-Dependent Effect | Activity [2]: 1% | Activity [3]: Active | inhibition [4]: Dose-Dependent Effect | AUC(0-t) [5]: 1040 ng·h/mL | Activity [6]: Non-Toxic | Activity [7]: 20% | IC50 [8]: 518 nM | selectivity ratio [9]: 211 | inhibition [10]: Active | Activity [11]: 29% | IC50 at 72 h [12]: 2490 nM | Activity [13]: Dose-Dependent Effect | Activity [14]: Dose-Dependent Effect | Activity [15]: 0% | IC50 [16]: 2.1 nM | Activity [17]: 3% | Activity [18]: Non-Toxic | IC50 [19]: 1290 nM | Activity [20]: Active | Activity [21]: Dose-Dependent Effect | AUC(0-inf) [22]: 1050 ng·h/mL | inhibition (INH) [23]: Not Active | Activity [24]: Dose-Dependent Effect

C=CC(=O)Nc1cc(Nc2nccc(-c3cn(C)c4ccccc34)n2)c(OC)cc1N(C)CCN(C)C [OSIMERTINIB]
inhibition [25]: Active
